{
  "source": "patent US7279600B2",
  "about": "“Hydroxy-biphenyl-carbaldehyde oxime derivatives and their use as estrogenic agents” (Wyeth, priority 2003, dated 2007)",
  "key": {"ERβ": {"target": "ERβ (Homo sapiens, UniProt Q92731)", "sequence (Q92731 whole entry, species assumed)": "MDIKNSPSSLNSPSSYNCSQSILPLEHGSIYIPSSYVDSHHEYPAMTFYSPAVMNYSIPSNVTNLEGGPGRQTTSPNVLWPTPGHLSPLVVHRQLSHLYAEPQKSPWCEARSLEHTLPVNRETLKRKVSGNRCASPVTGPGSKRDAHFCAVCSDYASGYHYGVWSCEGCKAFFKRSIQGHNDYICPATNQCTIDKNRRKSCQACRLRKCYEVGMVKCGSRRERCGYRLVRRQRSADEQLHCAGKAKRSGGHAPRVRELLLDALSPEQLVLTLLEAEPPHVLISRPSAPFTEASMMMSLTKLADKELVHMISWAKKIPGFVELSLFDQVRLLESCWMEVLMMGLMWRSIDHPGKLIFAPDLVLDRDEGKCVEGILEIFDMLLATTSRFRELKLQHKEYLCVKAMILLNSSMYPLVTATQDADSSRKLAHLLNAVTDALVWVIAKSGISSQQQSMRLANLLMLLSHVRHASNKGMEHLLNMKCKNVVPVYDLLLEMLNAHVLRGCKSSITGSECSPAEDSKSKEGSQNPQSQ", "experiment": "biochemical"}, "ERα": {"target": "ERα (Homo sapiens, UniProt P03372)", "sequence (P03372 whole entry)": "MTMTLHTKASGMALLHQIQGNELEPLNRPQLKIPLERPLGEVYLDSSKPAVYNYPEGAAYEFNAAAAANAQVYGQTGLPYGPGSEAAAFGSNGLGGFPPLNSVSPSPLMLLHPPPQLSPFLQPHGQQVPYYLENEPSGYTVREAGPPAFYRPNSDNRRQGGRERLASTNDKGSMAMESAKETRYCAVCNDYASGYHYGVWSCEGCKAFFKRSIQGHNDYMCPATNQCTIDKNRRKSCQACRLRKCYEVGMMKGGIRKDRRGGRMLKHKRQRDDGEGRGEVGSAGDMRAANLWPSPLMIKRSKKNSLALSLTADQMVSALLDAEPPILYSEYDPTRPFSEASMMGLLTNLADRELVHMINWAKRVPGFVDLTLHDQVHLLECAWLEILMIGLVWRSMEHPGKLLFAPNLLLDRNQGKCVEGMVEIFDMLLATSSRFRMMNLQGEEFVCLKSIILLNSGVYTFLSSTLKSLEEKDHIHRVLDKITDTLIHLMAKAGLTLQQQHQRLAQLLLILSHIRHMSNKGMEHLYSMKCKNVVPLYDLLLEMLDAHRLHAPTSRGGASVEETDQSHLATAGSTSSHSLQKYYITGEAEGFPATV", "experiment": "biochemical"}},
  "note": "Where a name gives a salt, the structure may show the parent alone.",
  "data": [
    {"smiles": "O/N=C/c1ccc(-c2ccc(O)c(F)c2)c(Cl)c1Cl", "note": "(as salt: salt) [Example 57, 2,3-Dichloro-3′-fluoro-4′-hydroxy-1,1′-biphenyl-4-carbaldehyde oxime]", "values": [
      {"measurement": "melting point", "value": "225 to 227", "unit": "°C"}
    ]},
    {"smiles": "Cc1cc(-c2ccc(O)cc2)ccc1/C=N/O", "note": "[Example 29, 4′-Hydroxy-3-methyl[1,1′-biphenyl]-4-carbaldehyde oxime]", "values": [
      {"measurement": "IC50", "setting": "ERβ", "value": 0.163, "unit": "µM"},
      {"measurement": "melting point", "value": "195 to 197", "unit": "°C"},
      {"measurement": "IC50", "setting": "ERα", "value": 3.19, "unit": "µM"}
    ]},
    {"smiles": "O/N=C/c1ccc(-c2ccc(O)cc2)cc1", "note": "[Example 30, 4′-Hydroxy[1,1′-biphenyl]-4-carbaldehyde oxime]", "values": [
      {"measurement": "IC50", "setting": "ERβ", "value": 3.84, "unit": "µM"},
      {"measurement": "melting point", "value": "207 to 210", "unit": "°C"},
      {"measurement": "IC50", "setting": "ERα", "value": "> 5", "unit": "µM"}
    ]},
    {"smiles": "O/N=C/c1ccc(-c2ccc(O)cc2)cc1Cl", "note": "[Example 31, 3-Chloro-4′-hydroxy[1,1′-biphenyl]-4-carbaldehyde oxime]", "values": [
      {"measurement": "IC50", "setting": "ERβ", "value": 0.085, "unit": "µM"},
      {"measurement": "melting point", "value": "187 to 189", "unit": "°C"},
      {"measurement": "IC50", "setting": "ERα", "value": 1.54, "unit": "µM"}
    ]},
    {"smiles": "O/N=C/c1ccc(-c2ccc(O)cc2)c(F)c1", "note": "[Example 32, 2-Fluoro-4′-hydroxy-1,1′-biphenyl-4-carbaldehyde oxime]", "values": [
      {"measurement": "IC50", "setting": "ERβ", "value": 0.421, "unit": "µM"},
      {"measurement": "melting point", "value": "178 to 180", "unit": "°C"},
      {"measurement": "IC50", "setting": "ERα", "value": 3.45, "unit": "µM"}
    ]},
    {"smiles": "O/N=C/c1ccc(-c2ccc(O)cc2)cc1F", "note": "[Example 33, 3-Fluoro-4′-hydroxy-1,1′-biphenyl-4-carbaldehyde oxime]", "values": [
      {"measurement": "IC50", "setting": "ERβ", "value": 0.161, "unit": "µM"},
      {"measurement": "IC50", "setting": "ERα", "value": 1.72, "unit": "µM"}
    ]},
    {"smiles": "O/N=C/c1ccc(-c2ccc(O)cc2)c(Cl)c1", "note": "[Example 34, 2-Chloro-4′-hydroxy-1,1′-biphenyl-4-carbaldehyde oxime]", "values": [
      {"measurement": "IC50", "setting": "ERβ", "value": 0.098, "unit": "µM"},
      {"measurement": "melting point", "value": "178 to 179", "unit": "°C"},
      {"measurement": "IC50", "setting": "ERα", "value": 0.398, "unit": "µM"}
    ]},
    {"smiles": "COc1cc(-c2ccc(O)cc2)ccc1/C=N/O", "note": "[Example 35, 4′-Hydroxy-3-methoxy-1,1′-biphenyl-4-carbaldehyde oxime]", "values": [
      {"measurement": "IC50", "setting": "ERβ", "value": 1.06, "unit": "µM"},
      {"measurement": "melting point", "value": "228 to 230", "unit": "°C"},
      {"measurement": "IC50", "setting": "ERα", "value": 7.99, "unit": "µM"}
    ]},
    {"smiles": "Cc1cc(/C=N/O)ccc1-c1ccc(O)cc1", "note": "[Example 36, 4′-Hydroxy-2-methyl-1,1′-biphenyl-4-carbaldehyde oxime]", "values": [
      {"measurement": "IC50", "setting": "ERβ", "value": 0.585, "unit": "µM"},
      {"measurement": "melting point", "value": "169 to 171", "unit": "°C"},
      {"measurement": "IC50", "setting": "ERα", "value": 2.82, "unit": "µM"}
    ]},
    {"smiles": "O/N=C/c1ccc(-c2ccc(O)c(F)c2)cc1Cl", "note": "[Example 37, 3-Chloro-3′-fluoro-4′-hydroxy-1,1′-biphenyl-4-carbaldehyde oxime]", "values": [
      {"measurement": "IC50", "setting": "ERβ", "value": 0.054, "unit": "µM"},
      {"measurement": "melting point", "value": "198 to 200", "unit": "°C"},
      {"measurement": "IC50", "setting": "ERα", "value": 1.91, "unit": "µM"}
    ]},
    {"smiles": "O/N=C/c1ccc(-c2cc(F)c(O)c(F)c2)cc1Cl", "note": "[Example 38, 3-Chloro-3′, 5′-fluoro-4′-hydroxy-1,1′-biphenyl-4-carbaldehyde oxime]", "values": [
      {"measurement": "IC50", "setting": "ERβ", "value": 0.268, "unit": "µM"},
      {"measurement": "melting point", "value": "216 to 219", "unit": "°C"},
      {"measurement": "IC50", "setting": "ERα", "value": "> 7", "unit": "µM"}
    ]},
    {"smiles": "Cc1cc(O)ccc1-c1ccc(/C=N/O)c(Cl)c1", "note": "[Example 39, 3-Chloro-4′-hydroxy-2′-methyl-1,1′-biphenyl-4-carbaldehyde oxime]", "values": [
      {"measurement": "IC50", "setting": "ERβ", "value": 0.027, "unit": "µM"},
      {"measurement": "melting point", "value": "169 to 171", "unit": "°C"},
      {"measurement": "IC50", "setting": "ERα", "value": 0.174, "unit": "µM"}
    ]},
    {"smiles": "O/N=C/c1c(Cl)cc(-c2ccc(O)cc2)cc1Cl", "note": "[Example 54, 3,5-Dichloro-4′-hydroxy-1,1′-biphenyl-4-carbaldehyde oxime]", "values": [
      {"measurement": "IC50", "setting": "ERβ", "value": 0.008, "unit": "µM"},
      {"measurement": "melting point", "value": "183 to 186", "unit": "°C"},
      {"measurement": "IC50", "setting": "ERα", "value": 0.064, "unit": "µM"}
    ]},
    {"smiles": "O/N=C/c1c(Cl)cc(-c2ccc(O)c(F)c2)cc1Cl", "note": "[Example 55, 3,5-Dichloro-3′-fluoro-4′-hydroxy-1,1′-biphenyl-4-carbaldehyde oxime]", "values": [
      {"measurement": "melting point", "value": "185 to 190", "unit": "°C"}
    ]},
    {"smiles": "O/N=C/c1ccc(-c2ccc(O)cc2)c(Cl)c1Cl", "note": "[Example 56, 2,3-Dichloro-4′-hydroxy-1,1′-biphenyl-4-carbaldehyde oxime]", "values": [
      {"measurement": "IC50", "setting": "ERβ", "value": 0.049, "unit": "µM"},
      {"measurement": "melting point", "value": "208 to 210", "unit": "°C"},
      {"measurement": "IC50", "setting": "ERα", "value": 0.851, "unit": "µM"}
    ]},
    {"smiles": "O/N=C/c1ccc(-c2ccc(O)c(F)c2)c(Cl)c1Cl", "note": "[Example 57, 2,3-Dichloro-3′-fluoro-4′-hydroxy-1,1′-biphenyl-4-carbaldehyde oxime]", "values": [
      {"measurement": "IC50", "setting": "ERβ", "value": 0.081, "unit": "µM"},
      {"measurement": "IC50", "setting": "ERα", "value": 1.96, "unit": "µM"}
    ]}
  ]
}
